Experimental findings from US9328059B2, “Pharmaceutical composition for preventing or treating autophagy-related diseases, angiogenic diseases or melanin-related diseases” (INDUSTRY-ACADEMIC COOPERATION FOUNDATION, YONSEI UNIVERSITY, priority 2010, dated 2016) are described below.

The test system of data set [1] is HeLa cells. The data set is described as follows: LC3 immunoblotting (LC3-I to LC3-II conversion) in HeLa. To be noted: for effect of autophagy inhibitor on indatraline-induced conversion of LC3-I to LC3-II: inhibitor pre-treated 1 hr. Type of data set: cell-based, human. As to the method:
(§1) Soluble proteins were harvested from indatraline-treated HeLa cells by using SDS buffer (50 mM Tris HCl, pH 6.8, 10% glycerol, 2% SDS, 10 mM dithiothreitol, and 0.005% bromophenol blue). Equal volumes of proteins were separated by 12.5% SDS-PAGE and transferred to PVDF membranes (Millipore). Blots were then blocked and immunolabeled overnight at 4° C. using anti-LC3 antibody (MBL, Nagoya, Japan). Immunolabeling was visualized with enhanced chemiluminescence (ECL) kit (Amersham Life Science, Inc., Buckinghamshire, UK) according to the manufacturer's protocol. Tubulin was used as an internal control and was detected using anti-tubulin antibody (Upstate Biotechnology).
LC3 conversion was finally verified by immunoblotting. After indatraline treatment for 24 hrs, the conversion of LC3-I to LC3-II in cells was tested (FIG. 2A). Inductions of autophagy in both of HUVEC and HeLa cells were tested in concentration starting from 5 μM. In order to investigate signal pathway related to indatraline, well-known autophagy inhibitors 3-MA (10 mM), Bafilomycin A (100 nM), PD98059 (10 μM) and Wortmannin (100 nM) was treated with indatraline. The inhibitors were pre-treated for 1 hr before indatraline and treated with 5 μM or 10 μM of indatraline. Where indatraline was treated with 5 μM of concentration, the conversion of LC3-I to LC3-II was inhibited in Bafilomycin A-treated sample and Wortmannin-treated sample (FIG. 2B). However, where indatraline was treated with 10 μM of concentration, the conversion of LC3-I to LC3-II was not inhibited in inhibitor-treated samples, except for Bafilomycin A-treated sample.

For data set [2], the system named is B16-F10 cells. The data set is described as follows: Cell growth (MTT) in B16-F10. To be noted: B16-F10, 5 μM, vs control group.
Method: (§4) In order to verify whether indatraline induces autophagy and is involved in melanogenesis, skin cancer cell line B16-F10 and normal skin cell line melan-a were treated with indatraline to determine autophagy generation. The amount of melanin generated in each cell line was measured at 5 μM concentration in which autophagy strongly occurs. For measurement on amounts of melanin, cells were treated with indatraline for 24, 48 and 72 hrs, and collected with KOH every day to measure melanin pigment absorbance at 410 nm. At the same time, cell proliferation was measured using MTT.
(§5) The amount of melanin generated in each cell line was measured at 5 μM of concentration which autophagy surely occurs. […] At the same time, cell growth was measured.
Data set [3] has as its system HUVEC. The data set is described as follows: VEGF-induced chemoinvasion assay. Type of data set: cell-based. As to the method: In vitro HUVEC invasion was verified using Transwell chamber equipped 8.0-1 m size pore polycarbonate filter insert. Briefly, the lower layer surface of the filter was coated with gelatin (1 mg/mL), and the upper layer surface of the filter was coated with matrigel (3 mg/mL). HUVEC (7×10^4 cells) was placed in the upper layer of the filter, and the compound was added to the lower layer of the filter under the presence of VEGF (50 ng/ml). Then, the chamber was incubated at 37° C. for 18 hrs. The cells were fixed with 70% methanol and stained with hematoxylin and eosin. The lower layer of the filter was observed by microscope with 100× magnification to measure the cell invasion. The cell images were obtained using DP70 camera.

The test system of data set [4] is COS7 cells stably expressing EGFP-LC3. The data set is described as follows: Autophagy detection in stable cell line expressing EGFP-LC3. The class given is cell-based, African green monkey. As to conditions: COS7 EGFP-LC3, 24 hrs. As to the method:
HeLa (human epithelial cervix adenocarcinoma) cells and COS-7 (African green monkey kidney cells) cells (Korean Cell Line Bank) were grown and maintained in DMEM containing 10% FBS (fetal bovine serum). A stable COS7 cell line expressing EGFP-LC3 was established by transfecting COS7 cells with pEGFP-LC3 using Lipofectamine 2000 according to the manufacturer's protocol (Invitrogen). Stable clones were selected in complete medium containing 750 μg/mL of G418. Cells were cultured at 37° C. in an atmosphere of 5% CO2 in air, pH 7.4. DMEM and FBS were obtained from Gibco Laboratories (Grand Island, N.Y.). Plasmids encoding EGFP-LC3 was kindly provided by Tamotsu Yoshimori (National Institute for Basic Biology, Japan).
In order to measure direct elements of autophagy, indatraline-induced autophagy was further verified in stable COST cell line expressing EGFP-LC3. Where autophagy was induced, the cytosolic form of LC3 is converted into the membrane-bound form. By the recruitment of Atg12-Atg5 complex, the cytosolic form of LC3 is converted into the membrane-bound form to mature the autophagosome. After indatraline treatment for 24 hrs, EGFP-LC3 positive small vacuoles were examined in the cytosol.

The subject of data set [5] is HUVEC. The experiment in a line: VEGF-induced capillary formation assay. Type of data set: cell-based. As to conditions: VEGF 50 ng/ml. As to the method: Matrigel (10 mg/mL) (BD, USA) was coated to 48-well plates and polymerized at 37° C. HUVEC (6×10^4 cells) was inoculated on the surface of matrigel in 48-well plates. Under the presence of VEGF (50 ng/ml), the compound was added for 4 hrs at 37° C. Cell morphological changes and a capillary structure formed were observed microscope (IX71, Olympus), and the images were obtained using DP70 camera (Olympus) at 100× magnification.

For the next data set, the system named is HUVEC cell. The data set is described as follows: Cytotoxicity during autophagy screening in HUVEC. Type of data set: cell-based. As to conditions: 5 μM, 24 hrs. On the procedure: (§2) The present study is newly reported that indatraline induces autophagy. Although the relationship between neurotransmitter inhibitor and autophagy has been studying, specific mechanisms for each neurotransmitter inhibitor have not yet been unknown. Indatraline-induced autophagy was verified by fluorescence screening and LC3 conversion immunoblotting. In addition, indatraline inhibits cell proliferation with an IC50 of 3 μM in HeLa cell and an IC50 of 0.5 μM in HUVEC cell, respectively. […] In addition, angiogenesis inhibitory effect of indatraline is tested as autophagy inducer and cell growth inhibitor. Indatraline of In vitro assay inhibits capillary formation, invasion and migration as angiogenesis indicators. […] Induction of autophagy may trigger signal inhibiting angiogenesis, or inhibition of neurotransmitter may simultaneously stimulate inhibitions of both of autophagy and angiogenesis.

Data set [6] relates to B16-F10 cells. The experiment in a line: Measurement of amounts of melanin generated in B16-F10. To be noted: B16-F10, 5 μM, vs control group.
Method: as §4, §5
In data set [7] the test system is melan-a cells. The data set is described as follows: Measurement of amounts of melanin generated in melan-a. To be noted: 5 μM, vs control group.
Method: as §4, §5
Another data set deals with rat carotid artery. The data set is described as follows: Inhibition of angiostenosis after balloon injury. Type of data set: in vivo. As to conditions: 7 days. As to the method: In order to verify effects for inhibiting angiostenosis by indatraline as autophagy-induced material in rat carotid artery, a balloon injury was created in the normal left rat carotid artery. After balloon injury, indatraline, rapamycin and DMSO (control group) were treated using catheter to observe angiostenosis. […] At 7 days after the injury, the carotid arteries were excised. Smooth muscle cells were stained with hematoxylin and eosin (H&E). Levels of angiostenosis were observed.
After balloon injury, indatraline, rapamycin and DMSO (control group) were treated using catheter to observe angiostenosis. […] The ratio between intima area and media area was compared by observing tissue stenosed.

For data set [8], the system named is HeLa cells. The experiment in a line: Autophagy detection by MDC staining. To be noted: 24 hrs.
From the text: (§6) Each sample was washed with PBS three times and visualized by fluorescence microscopy. […] Hoechst 33258 and LysoTracker were purchased from Molecular Probes (Eugene, Oreg.), and MDC was purchased from BioChemika (Sigma, Switzerland).
The subject of data set [9] is HUVEC. The experiment in a line: Cell proliferation assay (MTT) in HUVEC. Type of data set: cell-based. As to conditions: Homo sapiens, 72 h, 3 days. As to the method: (§3) Cell proliferation was measured using a MTT [3-(4,5-dimethylthiazol-2-yl)-2,5-diphenyltetrazolium bromide] colorimetric assay. HeLa cells and HUVEC (Lonza, USA) were seeded at a density of 3×10^3 cells/well in 96-well plates and incubated for 24 hrs. Cells were treated with various concentration of indatraline. After 3 days of treatment, 2 mg/mL MTT was added to each well and incubated for 4 hrs. MTT formazoan in each well was dissolved in 150 μL of DMSO, and absorbance at 595 nm was measured in a microplate reader (Bio-Tek Instrument Inc., Winooski, Vt.). Relative cell growth was measured by calculating the ratio between signal of indatraline-treated wells and control wells.

Data set [10] deals with HUVEC. The experiment in a line: Cell migration (wound) assay. The class given is cell-based. As to conditions: 5 μM and 10 μM, 9 hrs. On the procedure: To measure cell migration, HUVEC cells were cultured up to 100% confluence in 12-well plates. Then, the well was wounded a straight scratch using a 200 μL pipette tip. Cells were treated with indatraline and cells migration was observed every 3 hrs. The wound at 9 hrs was recovered by almost 80%. The images were obtained using DP70 camera with 40× magnification.

The subject of data set [11] is melan-a cells. The experiment in a line: Cell growth (MTT) in melan-a. To be noted: 5 μM, vs control group.
Method: as §4, §5
The subject of data set [12] is skin cancer cell line B16-F10. The experiment in a line: LC3 conversion in B16-F10. The class given is cell-based. As to conditions: B16-F10, 5 μM and 10 μM.
Data set [13] concerns HUVEC. The experiment in a line: LC3 immunoblotting (LC3-I to LC3-II conversion) in HUVEC. Type of data set: cell-based. As to conditions: 24 hrs. As to the method: as §1
LC3 conversion was finally verified by immunoblotting. After indatraline treatment for 24 hrs, the conversion of LC3-I to LC3-II in cells was tested (FIG. 2A). Inductions of autophagy in both of HUVEC and HeLa cells were tested in concentration starting from 5 μM. In order to investigate signal pathway related to indatraline, well-known autophagy inhibitors 3-MA (10 mM), Bafilomycin A (100 nM), PD98059 (10 μM) and Wortmannin (100 nM) was treated with indatraline. The inhibitors were pre-treated for 1 hr before indatraline and treated with 5 μM or 10 μM of indatraline. […]
(In western blotting, separated proteins are transferred to a membrane and probed.)

Data set [14] deals with normal skin cell line melan-a. The experiment in a line: LC3 conversion in melan-a. Type of data set: cell-based. As to the method:
It was verified whether indatraline is induced autophagy and involved in melanogenesis. The correlation of autophagy and melanogenesis has been studied as described above. Pigmentation disorders are generated by melanogenesis (chloasma, freckle, age spot, etc.), and abnormality of melanogenesis control can lead to melanoma (skin cancer). Therefore, melanogenesis control may be used to whitening and skin cancer treatment. […] As a result, it was determined that autophagy was induced. […] In melan-a cells, LC3 conversion was observed from 1 μM of concentration (FIG. 5A).

The test system of data set [15] is HeLa cells. The experiment in a line: Autophagy detection by Lysotracker fluorescence, quantified by HCS.
From the text: as §6
Data set [16] has as its system HeLa cells. The data set is described as follows: Cell proliferation assay (MTT) in HeLa. Type of data set: cell-based. As to conditions: Homo sapiens, 72 h, 3 days. On the procedure:
as §3

The next data set deals with HeLa cell. The experiment in a line: Cytotoxicity during autophagy screening in HeLa. Type of data set: cell-based, human. As to conditions: 5 μM, 24 hrs. As to the method: as §2

For `CO/C1=C\C(C)=C\[C@@H](C)[C@@H](O)[C@@H](C)C/C(C)=C/C=C/[C@H](OC)[C@@H]([C@@H](C)[C@@H](O)[C@H](C)[C@@]2(O)C[C@@H](O)[C@H](C)[C@@H](C(C)C)O2)OC1=O` [Bafilomycin A], the “effect of autophagy inhibitor on indatraline-induced conversion of LC3-I to LC3-II” value in the data set with HeLa cells [1] (indatraline 5 μM) and with HeLa cells [1] (indatraline 10 μM) was “inhibited” each time.
The IC50 is the midpoint of a concentration-inhibition curve. Low readings indicate higher potency, high ones lower potency. As to `CN[C@@H]1C[C@@H](c2ccc(Cl)c(Cl)c2)c2ccccc21` [indatraline], the figures for the cell growth inhibited in the data set with B16-F10 cells [2] (24 hrs) and in the data set with melan-a cells [11] (24 hrs) were 55% and 62%, respectively. Further, the “cell growth inhibited (maintained)” value in the data set with B16-F10 cells [2] (after 24 hrs (maintained)) is reported as 54%; in the data set with melan-a cells [11] (after 24 hrs (maintained)), 56%. For the same molecule, the VEGF-induced invasion entry in the data set with HUVEC [3] (0.5 μM and 1 μM, 18 hrs) was “significantly decreased invasion cells”. The “concentration from which VEGF-induced invasion is effectively inhibited” value in the data set on HUVEC [3] (FIG. 4B legend) was at least 5 µM. In addition, the “EGFP-LC3 fluorescence in the cytoplasm” value in data set [4] is on record as “increased indatraline concentration-dependently”. Besides, the VEGF-induced capillary formation entry in the data set on HUVEC [5] (1 μM) was “inhibited the mature capillary formation”. Besides, in the data set with HUVEC [5] (4 hrs), the capillary formation result is reported as “weakly inhibited”. Further, the “concentration from which LC3 conversion (autophagy induction) occurs” value with HeLa cells [1] (HeLa, 24 hrs) is at least 5 µM; in the data set on HUVEC [13] it was at least 5 µM. For the same molecule, the cytotoxicity result with HUVEC cell and with HeLa cell was “no cytotoxicity” each time. For the same molecule, the melanogenesis inhibited entry is reported as “approximately 77%” with B16-F10 cells [6] (48 hrs), “approximately 59%” with B16-F10 cells [6] (72 hrs), “approximately 89%” with melan-a cells [7] (48 hrs) and “approximately 74%” in the data set with melan-a cells [7] (72 hrs). Moreover, the angiostenosis result in the data set with rat carotid artery is “significantly inhibited”. For the same molecule, the “proliferation of smooth muscle cells” value in the data set with rat carotid artery is given as “inhibited”. Further, the “intima area (ratio between intima area and media area)” value with rat carotid artery (control approximately 80%) is “less than 60%”. Besides, the “smooth muscle cell growth reduced compared to control group” value with rat carotid artery (catheter treatment, intima/media ratio) is “approximately 20%”. Further, the MDC staining fluorescence entry with HeLa cells [8] is on record as “dose-dependent increase of fluorescence from 1 μM”. Further, the figures for the IC50 with HUVEC [9] and in the data set on HeLa cells [16] were 500 nM and 3000 nM, respectively. In addition, the “migration of HUVEC” value with HUVEC [10] is “inhibited migration”. The LC3 conversion entry in [12] was “strongly occurred”. Also, the “concentration from which LC3 conversion is observed” value in data set [14] was at least 1 µM. Besides, the “autophagy induction (Lysotracker fluorescence) relative to control group” value in the data set with HeLa cells [15] (1 μM, 24 hrs, HCS) was 2.87 times. Further, the “autophagy induction in HCS” value with HeLa cells [15] (Lysotracker) was “induced autophagy similar to rapamycin”.
